Structures can show the parent of a compound that is named as a salt.
How the values were obtained:
Hco-ACC-2 WT channel [1] = biological target: T1, Hco-ACC-2 WT channel (Haemonchus contortus, UniProt A0A219KWM7); conditions: wild-type channel; partial = maximum response lower than 100% of ACh
T1 sequence (A0A219KWM7 18-443): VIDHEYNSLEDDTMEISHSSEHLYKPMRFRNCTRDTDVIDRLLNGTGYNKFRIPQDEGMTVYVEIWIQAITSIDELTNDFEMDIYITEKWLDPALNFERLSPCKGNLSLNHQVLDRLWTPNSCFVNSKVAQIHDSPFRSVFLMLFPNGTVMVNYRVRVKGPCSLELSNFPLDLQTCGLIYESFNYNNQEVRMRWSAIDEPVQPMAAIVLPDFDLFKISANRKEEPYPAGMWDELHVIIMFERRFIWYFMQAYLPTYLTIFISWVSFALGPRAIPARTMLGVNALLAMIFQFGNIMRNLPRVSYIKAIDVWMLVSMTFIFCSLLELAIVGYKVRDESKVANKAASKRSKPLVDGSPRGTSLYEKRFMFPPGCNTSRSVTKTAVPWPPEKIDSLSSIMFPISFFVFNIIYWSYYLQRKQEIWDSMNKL

Hco-ACC-2 WT channel [2] = biological target: T1, Hco-ACC-2 WT channel; experiment: cell-based; conditions: EC50 ± standard error, n ≥ 5 oocytes

CC(=O)OCC[N+](C)(C)C [Acetylcholine]
full or partial agonist (Hco-ACC-2 WT channel [1]): full agonists

C[N+](C)(C)CCOC(N)=O [Carbachol, Carbamoylcholine Chloride]
full or partial agonist (Hco-ACC-2 WT channel [1]): partial agonists
EC50 (Hco-ACC-2 WT channel [2]): 43 ± 4 µM

C[N+](C)(C)CCO [Choline, Choline Chloride]
EC50 (Hco-ACC-2 WT channel [2]): 1280 ± 35 µM

c1ccc([C@H]2CN3CCSC3=N2)cc1 [Levamisole, Levamisole Hydrochloride]
full or partial agonist (Hco-ACC-2 WT channel [1]): partial agonists
EC50 (Hco-ACC-2 WT channel [2]): 98 ± 4 µM

CC(=O)OC(C)C[N+](C)(C)C (stereo not drawn) [Methacholine, Acetyl-β-methylcholine Chloride]
full or partial agonist (Hco-ACC-2 WT channel [1]): full agonists
EC50 (Hco-ACC-2 WT channel [2]): 100 ± 2 µM

CN1CCCN=C1/C=C/c1cccs1 [Pyrantel, Pyrantel Citrate Salt]
full or partial agonist (Hco-ACC-2 WT channel [1]): partial agonists
EC50 (Hco-ACC-2 WT channel [2]): 72 ± 4 µM

CC(C[N+](C)(C)C)OC(N)=O (stereo not drawn) [Urecholine, Carbamyl-β-methylcholine chloride]
full or partial agonist (Hco-ACC-2 WT channel [1]): partial agonists
EC50 (Hco-ACC-2 WT channel [2]): 747 ± 22 µM
